{"source": "paper PMC10647589", "about": "“Heterogeneous Cellular Response of Primary and Metastatic Human Gastric Adenocarcinoma Cell Lines to Magnoflorine and Its Additive Interaction with Docetaxel” (International Journal of Molecular Sciences, 2023)", "key": {"[1]": {"tested_on": "ACC-201 human GC cells", "assay": "MTT assay (viability; isobolographic analysis)", "format": "cell-based", "settings": "ACC-201, 72 h incubation, mean ± SEM", "experimental": "(§1) The human GC cells ACC-201, AGS, MKN-74 and NCI-N87 were placed in 96-well plates and allowed to adhere overnight. On the following day, the growth medium was removed, and the cells were treated with a series of tested MGN and DCT dilutions (2.0–75 and 0.0004–0.0404 µg/mL, respectively) for 72 h at 37 °C. […] Subsequently, a solution of MTT (5 mg/mL) was added to each well, and the cells were further incubated for 3 h at 37 °C. Tetrazolium salt was reduced to violet formazan derivatives via the succinate dehydrogenase of metabolically active cells. Insoluble formazan compounds formed inside the cells were extracted with a sodium dodecyl sulfate buffer (10% SDS in 0.01 N HCl) overnight to achieve a quantitative assessment of the amount produced. The absorbance of the samples was measured at 570 nm using Infinite M200 Pro microplate reader (Tecan, Männedorf, Switzerland). Cell viability was presented as a percentage relative to the untreated control cells.\n(§2) Interactions between MGN and DCT analyzed after 72 h in four different GC cell lines (ACC-201, AGS, MKN-74 and NCI-N87) were characterized by means of an isobolographic analysis in the MTT assay. The percentage inhibition of cell viability accompanied by the specific concentrations of the tested substances (MGN and DCT) were transferred to the MS Excel spreadsheet, and the data were computed using the log–probit method. Next, the concentration–response effect graphs for the tested drugs (MGN and DCT) were drawn, and the IC50 values for every tested drug were calculated. The cooperative effect of two concentration–response lines was tested for the MGN and DCT combination, as previously described. The calculations of IC50 values (±SEM) were computed with formulas originally derived from the log–probit method and adapted to the in vitro conditions, as described earlier. The concentration–response lines for MGN and DCT were not parallel, and thus, the isobolographic additivity was illustrated graphically as an area bounded by two (upper and lower) lines of additivity. From the experimentally denoted IC50 values for MGN and DCT in the MTT assay, median additive inhibitory concentrations (IC50add) for the mixture (at the fixed ratio of 1:1 of MGN and DCT) in various cell lines (ACC-201, AGS, MKN-74 and NCI-N87) were calculated, as described previously. More information on isobolographic analysis can be found in the literature."}, "[2]": {"tested_on": "AGS human GC cells", "assay": "MTT assay (viability; isobolographic analysis)", "format": "cell-based", "settings": "72 h incubation, mean ± SEM", "experimental": "as §1, §2"}, "[3]": {"tested_on": "MKN-74 human GC cells", "assay": "MTT assay (viability; isobolographic analysis)", "format": "cell-based", "settings": "MKN-74, 72 h incubation, mean ± SEM", "experimental": "as §1, §2"}, "[4]": {"tested_on": "NCI-N87 human GC cells", "assay": "MTT assay (viability; isobolographic analysis)", "format": "cell-based", "settings": "NCI-N87, 72 h incubation, mean ± SEM", "experimental": "as §1, §2"}, "[5]": {"tested_on": "human GC cells ACC-201, AGS, MKN-74 and NCI-N87", "assay": "BrdU incorporation assay", "format": "cell-based", "settings": "MGN 2–75 μg/mL, 72 h, four GC cell lines", "experimental": "The human GC cells ACC-201, AGS, MKN-74 and NCI-N87 were placed in 96-well plates and allowed to adhere overnight. On the following day, the growth medium was replaced with fresh medium, and the cells were exposed to a series of tested MGN dilutions (2.0–75 µg/mL) for 72 h. Cell proliferation was quantified according to the manufacturer’s instruction, Cell Proliferation ELISA, BrdU (colorimetric) (Biorbyt, Cambridge, UK). Briefly, BrdU reagent was added to the medium, followed by Fixative/Denaturing Solution for 30 min at room temperature. Incorporated BrdU in the place of thymidine in the cell’s DNA under division was detected using mouse monoclonal anti-BrdU for 1 h at room temperature, followed by horseradish peroxidase (HRP)-linked goat anti-mouse IgG secondary antibody and tetramethylbenzidine (a HRP substrate) for 30 min at room temperature. The absorbance was measured at 450 nm using Infinite M200 Pro microplate reader (Tecan, Männedorf, Switzerland). Results are presented as a percentage of BrdU incorporation vs. control cells (indicated as 100%)."}, "[6]": {"tested_on": "zebrafish embryos and larvae", "assay": "Zebrafish embryo toxicity test (OECD test no. 236, modified)", "format": "in vivo", "experimental": "At first, zebrafish embryos were screened and sorted one hour after fertilization. Only perfectly transparent and fertilized embryos were transferred to plastic well plates. […] Developing embryos were incubated in the MGN solutions until 96 hpf. The amounts of MGN absorbed by zebrafish were measured in 96 hpf-old larvae (n = 50 larvae/sample, three samples/dose) through the use of HPLC-MS. The larvae were first washed in medium prior to homogenization with the additive of acetonitrile:water mixture in equal proportions (50:50 v/v). The homogenate was centrifuged at 20,000 rpm for 20 min, and the supernatant was pipetted, filtered through a nylon syringe filter (nominal pore size of 0.1 µm diameter) and subjected to HPLC-MS analysis in the positive ionization mode.\nThe following phenotypic features were scored in larvae exposed to different doses of MGN: (I) hatchability at 72 and 96 hpf, (II) morphological anomalies at 96 hpf, and (III) escape response at 96 hpf. Morphological analysis included the presence/lack of swim bladder, body axis/shape, presence/lack of pericardial edema, jaw development, normal/necrotic yolk sac, presence/absence of hemorrhage and changes in pigmentation. For photographs, each larva was anaesthetized and mounted on a glass slide. To evaluate the muscle performance and function in MGN-incubated larvae, in a separate cohort of 96 hours-old larvae, we assessed escape response by touching the tail with the tip of a needle."}, "[7]": {"tested_on": "zebrafish larvae", "assay": "Locomotor activity assay in larval zebrafish", "format": "in vivo", "settings": "MGN 100, 175 or 250 µg/mL, after 95 h incubation", "experimental": "Locomotor activity was examined to determine whether chronic MGN exposure may induce neurotoxic effects in fish. Noldusapparatus (EthoVision XT, Wageningen, The Netherlands) was used for this purpose. After 95 h of incubation in different doses of MGN (100, 175 or 250 µg/mL), each larva was placed individually in the wells of a 48-well plate filled with 300 µL of the medium. After 15 min of habituation, larval activity was tracked in the light phase for a period of 30 min. The distance covered by each larva in millimeters (mm) was assessed."}}}
{"smiles": "COc1ccc2c(c1O)-c1c(O)c(OC)cc3c1[C@H](C2)[N+](C)(C)CC3", "note": "[MGN, magnoflorine]", "values": [{"measurement": "IC50", "setting": "[1]", "value": "15.8 ± 2.79", "unit": "µg/mL"}, {"measurement": "IC50", "setting": "[2]", "value": "17.2 ± 3.59", "unit": "µg/mL"}, {"measurement": "IC50", "setting": "[3]", "value": "34.8 ± 6.04", "unit": "µg/mL"}, {"measurement": "IC50", "setting": "[4]", "value": "33.3 ± 5", "unit": "µg/mL"}, {"measurement": "BrdU-labeled DNA (proliferation)", "setting": "[5]", "value": "dose-dependent decrease"}, {"measurement": "Hatching rate", "setting": "[6]; MGN 100 µg/mL, scored at 72 hpf", "value": 100, "unit": "%"}, {"measurement": "Hatching rate", "setting": "[6]; MGN 100 µg/mL, scored at 96 hpf", "value": 100, "unit": "%"}, {"measurement": "Hatching rate", "setting": "[6]; MGN 175 µg/mL, scored at 72 hpf", "value": 100, "unit": "%"}, {"measurement": "Hatching rate", "setting": "[6]; MGN 175 µg/mL, scored at 96 hpf", "value": 100, "unit": "%"}, {"measurement": "Hatching rate", "setting": "[6]; MGN 250 µg/mL, scored at 72 hpf", "value": 52.77, "unit": "%"}, {"measurement": "Hatching rate", "setting": "[6]; MGN 250 µg/mL, scored at 96 hpf", "value": 94.44, "unit": "%"}, {"measurement": "larvae with curved body axis", "setting": "[6]; MGN 500 µg/mL, 96 hpf", "value": 43, "unit": "%"}, {"measurement": "larvae with delayed touch response", "setting": "[6]; MGN 500 µg/mL, 96 hpf", "value": 70, "unit": "%"}, {"measurement": "larvae with heart edema", "setting": "[6]; MGN 500 µg/mL, 96 hpf", "value": 40, "unit": "%"}, {"measurement": "larvae with lack of swim bladder", "setting": "[6]; MGN 500 µg/mL, 96 hpf", "value": 93, "unit": "%"}, {"measurement": "larvae with underdeveloped jaw", "setting": "[6]; MGN 500 µg/mL, 96 hpf", "value": 90, "unit": "%"}, {"measurement": "larvae with yolk sac necrosis", "setting": "[6]; MGN 500 µg/mL, 96 hpf", "value": 46, "unit": "%"}, {"measurement": "Hatching rate", "setting": "[6]; MGN 500 µg/mL, scored at 72 hpf", "value": 23.33, "unit": "%"}, {"measurement": "Hatching rate", "setting": "[6]; MGN 500 µg/mL, scored at 96 hpf", "value": 86.66, "unit": "%"}, {"measurement": "Hatching", "setting": "[6]; MGN 750 µg/mL, up to 96 h", "value": "none of the larvae hatched"}, {"measurement": "Survival", "setting": "[6]; MGN 750 µg/mL, up to 96 h", "value": "all survived in chorions"}, {"measurement": "concentration with no evidence of toxicity", "setting": "[6]; developing zebrafish, chronic exposure from 1 hpf to 96 hpf", "value": "up to 250 µg/mL"}, {"measurement": "morphological parameters scored", "setting": "[6]; three lowest concentrations (100, 175, 250 µg/mL), 96 hpf", "value": "did not affect any of the parameters scored"}, {"measurement": "locomotor activity: distance travelled within 30 min vs control", "setting": "[7]", "value": "No differences between the tested groups"}]}
